Assay results reported in patent US4317768A, “Dihydropyridine derivatives as stabilizers for vinyl chloride polymers” (priority 1977, dated 1982).

Experiments:
[1] = Static thermostability (GARDNER method), rigid PVC sheets, 210° C., 0.3 part stabilizer; conditions: for thermostabilizing power compared to 2-phenyl-indole, in words: 210° C.
Procedure: (§1) This study was carried out according to the GARDNER method, described in British Pat. No. 1,489,685.
(§2) The reference substance was 2-phenyl-indole, a well-known and widely used stabilizer.
(§3) The stabilizer (dihydropyridine or 2-phenyl-indole) and the other usual ingredients were mixed with powdered vinyl resins and the mixtures were calendered at a temperature of 160° C. to give rigid sheets.
(§4) The sheets were then heated in a thermostated oven (185° C. or 210° C.) for different intervals of time until incipient carbonization.
(§5) The coloration of the samples was compared to a standard scale of coloration, known as the GARDNER scale and was expressed in terms of the reference figures of the GARDNER scale.
(§6) This study was carried out with the following resin:
(§7) Polyvinyl chloride resin
(§8) SL 2016 is a solution of zinc-2-ethyl-hexanoate in a mixture of hydrocarbons boiling between 158° C. and 184° C.
The first trial was carried out at 210° C. with a resin containing 0.3 part by weight of stabilizer, the sheets being removed from the oven every three minutes over a period of 21 minutes.

[2] = Static thermostability (GARDNER method), rigid PVC sheets, 185° C., 0.3 part stabilizer
Procedure: as §1, §2, §3, §4, §5, §6, §7, §8
A second trial was performed at a temperature of 185° C., with a resin containing 0.3 part of stabilizer, the samples being removed from the oven every 6 minutes over a period of 24 minutes, then every 3 minutes until the 42nd minute (or until carbonization).

[3] = Static thermostability (GARDNER method), rigid PVC sheets, 185° C., equimolecular quantities; conditions: 1.55×10^-3 mol
Procedure: as §1, §2, §3, §4, §5, §6, §7, §8
Finally, a trail was performed at 185° C., with resins containing equimolecular quantities of the dihydropyridines or of 2-phenyl-indole, namely 1.55×10^-3 mol. In this case too, the samples were removed from the oven every 6 minutes over a period of 24 minutes and then every 3 minutes until the 42nd minute (or until carbonization).

Row | SMILES | coloration, GARDNER scale ([1]; 0 min) | coloration, GARDNER scale ([1]; 3 min) | coloration, GARDNER scale ([1]; 6 min) | coloration, GARDNER scale ([1]; 9 min) | coloration, GARDNER scale ([1]; 12 min) | coloration, GARDNER scale ([1]; 15 min) | coloration, GARDNER scale ([1]; 18 min) | coloration, GARDNER scale ([1]; 21 min) | other results
1 | COCCOC(=O)C1=C(C)NC(C)=C(C(=O)OCCOC)C1 [Compound 25] | 1 | 1 | 1 | 1 | 1 | 4 | 11 | 17 | –
2 | COC(=O)C1=C(C)NC(C)=C(C(=O)OC)C1c1ccccc1 [Compound 23, 2,6-Dimethyl-3,5-dicarbomethoxy-4-phenyl-1,4-dihydropyridine] | 1 | 2 | 3 | 13 | 14 | 15 | Burnt | – | –
3 | C=CCCC1=C(C(=O)OC)CC(C(=O)OC)=C(CCC=C)N1 [Compound 17, 2,6-Di-(3-butenyl)-3,5-dicarbomethoxy-1,4-dihydropyridine] | 1 | 1 | 2 | 8 | 9 | Burnt | – | – | thermostabilizing power compared to 2-phenyl-indole, in words [1]: greatly superior to 2-phenyl-indole
4 | COc1ccc(COC(=O)C2=C(C)NC(C)=C(C(=O)OCc3ccc(OC)cc3)C2)cc1 [Compound 4] | 1 | 1 | 2 | 4 | 6 | 11 | Burnt | – | coloration of the resins, in words ([1]; 0 to 3 minutes): considerably less; coloration, GARDNER scale ([2]; 0 min): 1; coloration, GARDNER scale ([2]; 6 min): 1; coloration, GARDNER scale ([2]; 12 min): 2; coloration, GARDNER scale ([2]; 18 min): 8; coloration, GARDNER scale ([2]; 24 min): 13; coloration, GARDNER scale ([2]; 27 min): 14; coloration, GARDNER scale ([2]; 30 min): 17; coloration, GARDNER scale ([2]; 33 min): 18; coloration, GARDNER scale ([2]; 36 min): Burnt; coloration, GARDNER scale ([3]; 0 min): 1; coloration, GARDNER scale ([3]; 6 min): 1; coloration, GARDNER scale ([3]; 12 min): 1; coloration, GARDNER scale ([3]; 18 min): 4; coloration, GARDNER scale ([3]; 24 min): 6; coloration, GARDNER scale ([3]; 27 min): 8; coloration, GARDNER scale ([3]; 30 min): 11; coloration, GARDNER scale ([3]; 33 min): 15; coloration, GARDNER scale ([3]; 36 min): Burnt
5 | CCOC(=O)C1=C(Cc2ccccc2)NC(Cc2ccccc2)=C(C(=O)OCC)C1 [Compound 16, 2,6-Dibenzyl-3,5-dicarbethoxy-1,4-dihydropyridine] | 1 | 1 | 3 | 4 | 11 | 18 | Burnt | – | thermostabilizing power compared to 2-phenyl-indole, in words [1]: greatly superior to 2-phenyl-indole
6 | CCOCCOC(=O)C1=C(C)NC(C)=C(C(=O)OCCOCC)C1 [Compound 26] | 1 | 1 | 1 | 1 | 1.5 | 3 | 11 | Burnt | –
7 | CC1=C(C(=O)OCCOCCCl)CC(C(=O)OCCOCCCl)=C(C)N1 [Compound 19, 2,6-Dimethyl-3,5-di-(2"-carbochloro-2'ethoxy-ethoxy)-1,4-dihydropyridine] | 1 | 1 | 1 | 2 | 3 | 10 | 13 | Burnt | –
8 | CC1=C(C(=O)OCc2ccc(Cl)cc2)CC(C(=O)OCc2ccc(Cl)cc2)=C(C)N1 [Compound 7, 2,6-Dimethyl-3,5-di-(4'carbochloro-benzyloxy)-1,4-dihydropyridine] | 1 | 1 | 2 | 4 | 10.5 | 14 | Burnt | – | –
